Patent US8771714B2, “Systems and methods for in vivo measurement of interstitial biological activity, processes and/or compositions” (MUSC Foundation for Research Development, priority 2006, dated 2014)
Like-named read-outs stand apart in the source and are kept apart here. One block for each compound: values may come before it. Square brackets hold non-standard residues; d marks the D form. * marks the point of attachment. Dpa = 3-(2,4-dinitrophenyl)-L-2,3-diaminopropionyl; Dnp = O=[N+]([O-])c1ccc(*)c([N+](=O)[O-])c1; Mca = COc1ccc2c(CC(=O)*)cc(=O)oc2c1; Cha = N[C@@H](CC1CCCCC1)C(=O)O; Nva = CCC[C@H](N)C(=O)O; Mob = COc1ccc(C*)cc1

Tests used:
MMPs = MMPs that cleave the substrate, commercially available substrates, cited from earlier work
angiotensin receptor = angiotensin receptor (Sus scrofa, UniProt P30555); details: bolus of 1 mg/kg, infusion of 3 ng/kg/h; previously found; cited from earlier work
Sequence of angiotensin receptor (P30555 whole entry, the tested form may be a part): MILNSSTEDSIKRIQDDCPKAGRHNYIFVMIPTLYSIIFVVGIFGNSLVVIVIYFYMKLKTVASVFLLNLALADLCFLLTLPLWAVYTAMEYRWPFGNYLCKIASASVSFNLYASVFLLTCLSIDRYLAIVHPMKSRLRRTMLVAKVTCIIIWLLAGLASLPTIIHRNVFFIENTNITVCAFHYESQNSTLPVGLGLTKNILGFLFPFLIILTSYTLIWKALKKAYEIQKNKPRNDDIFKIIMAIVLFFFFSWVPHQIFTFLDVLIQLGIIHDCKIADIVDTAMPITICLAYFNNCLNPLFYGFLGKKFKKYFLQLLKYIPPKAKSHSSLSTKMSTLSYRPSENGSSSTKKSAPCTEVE

MMP-2 and MMP-9 = tested on: MMP-2 and MMP-9; design: species or system pigs; details: pig, in vivo
MMP-8 = target: T1, MMP-8 (Homo sapiens, UniProt P22894); experiment: Specificity of MT1-MMP substrate: incubation with MMP-8; assay type: biochemical; details: MMP-8 10 ng/mL alone, 30 mM substrate
T1 construct: purchased Calbiochem
T1 sequence (P22894 101-467, species assumed): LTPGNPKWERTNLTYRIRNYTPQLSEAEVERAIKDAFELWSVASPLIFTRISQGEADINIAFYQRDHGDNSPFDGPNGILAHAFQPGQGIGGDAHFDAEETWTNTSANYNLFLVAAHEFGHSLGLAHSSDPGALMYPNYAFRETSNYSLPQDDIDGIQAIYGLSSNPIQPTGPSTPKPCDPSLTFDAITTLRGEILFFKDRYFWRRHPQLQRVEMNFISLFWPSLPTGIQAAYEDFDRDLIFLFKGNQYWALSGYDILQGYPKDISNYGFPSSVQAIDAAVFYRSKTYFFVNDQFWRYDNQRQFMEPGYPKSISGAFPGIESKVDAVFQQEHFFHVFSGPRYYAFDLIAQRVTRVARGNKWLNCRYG
Experimental: (§1) In an additional set of experiments (FIG. 16), MT1-MMP catalytic domain (1000 ng/mL, BIOMOL, Plymouth Meeting, Pa.) was injected into a 96-well polystyrene plate (Nalge Nunc International, Rochester, N.Y.) with a 30 mM mixture of MT1-MMP substrate only or MT1-MMP substrate with MMP-2/9 (500 ng/mL, Chemicon; FIG. 16, top), MMP-8 (10 ng/mL, Calbiochem; FIG. 16, middle), or a disintegrin and metalloproteinase (ADAM)-10 and -17 cocktail (200 ng/mL, R&D Systems; FIG. 16, bottom).

MMP-2/9 = experiment: Specificity of MT1-MMP substrate: incubation with MMP-2/9; assay type: biochemical; details: MMP-2/9 500 ng/mL alone, 30 mM substrate
Experimental: as §1

[1] = tested on: a disintegrin and metalloproteinase (ADAM)-10 and -17; experiment: Specificity of MT1-MMP substrate: incubation with ADAM-10 and -17 cocktail; assay type: biochemical; details: ADAM-10 and -17 cocktail 200 ng/mL alone, 30 mM substrate
Experimental: as §1

[2] = target: T2, MT1-MMP (MMP-14) recombinant catalytic domain (Homo sapiens, UniProt P50281); experiment: In vitro validation of MT1-MMP fluorogenic substrate with recombinant MT1-MMP catalytic domain; assay type: biochemical
T2 construct: recombinant MT1-MMP catalytic domain (BIOMOL, Plymouth Meeting, Pa.); purchased BIOMOL, Plymouth Meeting, Pa
Experimental: Examples of fluorogenic substrate specificity for MMPs are shown below.
Specifically, MT1-MMP substrate (7.5 mM) was injected into a 96-well polystyrene plate (Nalge Nunc International, Rochester, N.Y.) with a 1.0 ng/mL concentration of recombinant MT1-MMP catalytic domain (BIOMOL, Plymouth Meeting, Pa.) and fluorescence emission was recorded. A rapid rise in activity, as measured by fluorescence emission, plateaued around 90 minutes. […] (FIG. 15, top). In addition, full length MT1-MMP (pretreated with 10 mM p-aminophenylmercuric acetate) was incubated for 1 hour at 37° C. with or without an antibody specific for the catalytic domain of MT1-MMP (1000 ng/mL, Chemicon AB8102). After the incubation period, the MT1-MMP substrate was injected and fluorescence emission recorded.
as §1

MMP-14 = target: T3, MMP-14 (Homo sapiens, UniProt P50281); experiment: Ex-vivo MMP-14 activity in myocardial extracts; assay type: biochemical; design: dose or concentration left out as unconfirmed; details: BB94; FIG. 22
T3 construct: from tissue; host or cells: human myocardium, crude homogenate
Experimental: A similar experiment was done utilizing the fluorogenic substrate specific for MT1-MMP (MMP-14). Substrate (MMP-14 Substrate I, Fluorogenic, Calbiochem) was diluted in the same reaction buffer and loaded into the FLUOstar® for automatic injection (10 μM). […] The reaction was allowed to proceed in which 200 recordings (398 minutes) were collected. This reaction using the MMP-14 specific substrate was linear with increasing concentrations of a recombinant MMP-14 catalytic domain ([…], Chemicon) (FIG. 20).

MT1-MMP catalytic domain = experiment: Validation of LTBP-1 fluorogenic substrate with MT1-MMP catalytic domain; assay type: biochemical; details: 15 uM LTBP-1 substrate; 0007258 5 pM; BB94 1 uM; AB8102 1 mg/mL
Source text: Previous studies have identified mutations within a similar type of domain in fibrillin-1, an LTBP-1 homologue, implicated in Marfan Syndrome (MFS). Furthermore, MFS has been associated with the over-stimulation of TGF-Beta signaling as a result of fibrillin-1 mutation. Using this unique sequence, a fluorogenic peptide was constructed and validated. This peptide sequence was synthesized in a caged fluorogenic construct (AnaSpec Inc, CA; newly assigned peptide name:SCJJ-1) with a certified HPLC purity of >98% FIG. 28. Using the incubation conditions and fluorescent equipment described in the previous section, and a specific excitation/emission wavelength (340/483 nm), 15 uM of LTBP-1 was exposed to increasing concentrations of the MT1-MMP catalytic domain FIG. 28.
Thus, an LTBP-1 peptide sequence constructed and validated that is specifically cleaved by MT1-MMP.

MMP-1, 2, 3, 7, 9 = experiment: Ex-vivo MMP-1, 2, 3, 7, 9 activity in myocardial extracts; assay type: biochemical, human; design: dose or concentration left out as unconfirmed; details: BB94; FIG. 18
Experimental: In addition, these substrates were used to examine MMP activity ex-vivo using myocardial samples from both human and animal specimens. The frozen myocardial tissue was submerged in 2 mL of ice-cold buffer (Cacodylic Acid, NaCl, ZnCl2, CaCl2, NaN3, 0.08% Triton X), homogenized, and spun at 8,000 G for 10 minutes at 4C. The supernatant was then measured, tested for protein concentration, aliquoted, and stored at −70° C. Final protein concentrations were diluted in a reaction buffer containing (0.05% Brij, 50 mM Tris-HCl, 0.2 M NaCl, 10 mM CaCl2, […]) and the samples were loaded onto a 96-well microplate (FluoroNunc® 96-Well Polystyrene Plates) and placed in a 37° C. temperature controlled unit allowing for continuous fluorescence measurements (FLUOstar® Galaxy, BMG Labtechnologies). Substrate (MMP Substrate, Fluorogenic, Calbiochem) was diluted in the same reaction buffer and loaded into the FLUOstar® for automatic injection (12 mM). […] Excitation was set to (280 nm) and emission was set to (360 nm) and readings were taken every 2 minutes following the addition of the substrate. The reaction was allowed to proceed to 200 recordings (398 minutes). This reaction using the MMP-1, 2, 3, 7, 9 specific substrate was linear with increasing concentrations.

[3] = tested on: MMP-2/9 recombinant protein; experiment: MMP-1, 2, 3, 7, 9 substrate incubated with MMP-2/9 recombinant protein; assay type: biochemical
Experimental: Microdialysis: Microdialysis probes with a molecular weight cutoff of 20 kDa and an outer diameter of 0.5 mm were placed in the LV. The molecular weight cutoff of the microdialysis probe prevented any MMP species from traversing the membrane. A fluorogenic substrate specific for MMP-1, 2, 3, 7, and 9 (Calbiochem, La Jolla, Calif.) at a concentration of 60 ˜mol/L was stored in a 2.5 mL Bee Stinger® Gastight Syringe (Bioanalytical Systems, Inc) and infused at a rate of 5 ˜L/min through the 2 probes by the Baby Bee® Syringe Drive controlled by the MD-1020 Bee Hive Controller (Bioanalytical Systems, Inc). Fluorescence emitted via substrate cleavage deter-mined MMP activity. Substrate was allowed to equilibrate for 20 minutes before the beginning of the protocol. All tubing and syringes were protected from light. The specificity of this substrate was determined and performed as described for these fluorogenic substrates previously. […] With the addition of a broad spectrum MMP inhibitor (BB-94, 10 mmol/L, British Biotech), fluorescence emission was abolished.

purified MMP-2/9 = experiment: In vitro microdialysis of MMP substrate in immersion solution with purified MMP-2/9; assay type: biochemical; details: infused at 2.5 ml/min, purified MMP-2/9, 37° C.

Compound: DNP-Pro-Tyr-Ala-Tyr-Trp-Met-Arg-OH (Dnp-PYAYWMR-OH; SMILES CSCC[C@H](NC(=O)[C@H](Cc1c[nH]c2ccccc12)NC(=O)[C@H](Cc1ccc(O)cc1)NC(=O)[C@H](C)NC(=O)[C@H](Cc1ccc(O)cc1)NC(=O)[C@@H]1CCCN1c1ccc([N+](=O)[O-])cc1[N+](=O)[O-])C(=O)N[C@@H](CCCNC(=N)N)C(=O)O) [SEQ ID NO: 4]
Specificity (MMPs): MMP-3

Compound: MCA-Pro-Cha-Gly-Nva-His-Ala-Dpa-NH2 (Mca-P[Cha]G[Nva]HA-{Dpa-NH2}) [SEQ ID NO: 7]
Specificity (MMPs): MMP-13

Compound: CCCCC(=O)N(Cc1ccc(-c2ccccc2-c2nnn[nH]2)cc1)[C@H](C(=O)O)C(C)C [Valsartan]
effect on angiotensin pressor response (angiotensin receptor): inhibited the angiotensin pressor response

Compound: CNC(=O)[C@H](Cc1c[nH]c2ccccc12)NC(=O)[C@@H](CC(=O)NO)CC(C)C [galardin]
fluorescent activity in interstitial microdialysate samples on coinfusion with MMP substrate (MMP-2 and MMP-9): abolished all fluorescent activity

Compound: DNP-Pro-Leu-Gly-Met-Trp-Ser-Arg-OH (Dnp-PLGMWSR-OH; SMILES CSCC[C@H](NC(=O)CNC(=O)[C@H](CC(C)C)NC(=O)[C@@H]1CCCN1c1ccc([N+](=O)[O-])cc1[N+](=O)[O-])C(=O)N[C@@H](Cc1c[nH]c2ccccc12)C(=O)N[C@@H](CO)C(=O)N[C@@H](CCCNC(=N)N)C(=O)O) [SEQ ID NO: 9]
Specificity (MMPs): MMP-2,9

Compound: DNP-Arg-Pro-Leu-Ala-Leu-Trp-Arg-Ser-OH (Dnp-RPLALWRS-OH; SMILES CC(C)C[C@H](NC(=O)[C@H](C)NC(=O)[C@H](CC(C)C)NC(=O)[C@@H]1CCCN1C(=O)[C@H](CCCNC(=N)N)Nc1ccc([N+](=O)[O-])cc1[N+](=O)[O-])C(=O)N[C@@H](Cc1c[nH]c2ccccc12)C(=O)N[C@@H](CCCNC(=N)N)C(=O)N[C@@H](CO)C(=O)O) [SEQ ID NO: 5]
Specificity (MMPs): MMP-7

Compound: DNP-Pro-Leu-Ala-Leu-Trp-Arg-OH (Dnp-PLALWR-OH; SMILES CC(C)C[C@H](NC(=O)[C@H](C)NC(=O)[C@H](CC(C)C)NC(=O)[C@@H]1CCCN1c1ccc([N+](=O)[O-])cc1[N+](=O)[O-])C(=O)N[C@@H](Cc1c[nH]c2ccccc12)C(=O)N[C@@H](CCCNC(=N)N)C(=O)O) [SEQ ID NO: 3]
Specificity (MMPs): MMP-1

fluorescence emission from the substrate (MMP-8): failed to cause fluorescence emission
fluorescence emission from the substrate [1]: failed to cause fluorescence emission
fluorescence emission from the substrate ([2]; injection of MT1-MMP catalytic domain 1000 ng/mL, in all protease cocktails): rapid rise in fluorescence emission
time at which fluorescence emission plateaued ([2]; substrate 7.5 mM, 1.0 ng/mL recombinant MT1-MMP catalytic domain): around 90 minutes
Compound: MCA-Pro-Leu-Ala-Cys(p-OMeBz)-Trp-Ala-Arg(Dpa)-NH2 (Mca-PLAC(Mob)WAR(Dpa)-NH2) [SEQ ID NO: 8]
fluorescence emission from the substrate (MMP-2/9): failed to cause fluorescence emission
Specificity (MMPs): MMP-14
Specificity (MMPs; listed as SEQ ID NO:8): cleaved selectively by MMP-14

Compound: DABCYL-GABA-Arg-Pro-Lys-Pro-Val-Glu-Nva-Trp-Arg-Glu(EDANS)-Ala-Lys-NH2 [SEQ ID NO: 2]
Specificity (MMPs): MMP-3,5,9,13

inhibition of MMP-14 substrate reaction (MMP-14): significantly inhibited
fluorescence emission with addition of BB94 ([2]; MT1-MMP recombinant catalytic domain, FIG. 13): abolishment of fluorescence emission
Compound: CNC(=O)[C@H](Cc1ccccc1)NC(=O)[C@H](CC(C)C)[C@H](CSc1cccs1)C(=O)NO [BB94]
fluorescent activity on co-incubation (MT1-MMP catalytic domain): extinguished all fluorescent activity
inhibition of MMP-1, 2, 3, 7, 9 substrate reaction (MMP-1, 2, 3, 7, 9): significantly inhibited
fluorescence emission with addition of inhibitor ([3]; BB-94, MMP-2/9 500 ng/mL): abolished

Compound: Dnp-PLGLGMWSR-OH
time at which relative fluorescence plateaued (purified MMP-2/9): ≤ 60 min

Compound: DNP-Pro-Leu-Ala-Tyr-Trp-Ala-Arg-OH (Dnp-PLAYWAR-OH; SMILES CC(C)C[C@H](NC(=O)[C@@H]1CCCN1c1ccc([N+](=O)[O-])cc1[N+](=O)[O-])C(=O)N[C@@H](C)C(=O)N[C@@H](Cc1ccc(O)cc1)C(=O)N[C@@H](Cc1c[nH]c2ccccc12)C(=O)N[C@@H](C)C(=O)N[C@@H](CCCNC(=N)N)C(=O)O) [SEQ ID NO: 6]
Specificity (MMPs): MMP-8

Compound: DNP-Pro-Leu-Gly-Leu-Trp-Ala-D-Arg-NH2 (Dnp-PLGLWA[dR]-NH2; SMILES CC(C)C[C@H](NC(=O)CNC(=O)[C@H](CC(C)C)NC(=O)[C@@H]1CCCN1c1ccc([N+](=O)[O-])cc1[N+](=O)[O-])C(=O)N[C@@H](Cc1c[nH]c2ccccc12)C(=O)N[C@@H](C)C(=O)N[C@H](CCCNC(=N)N)C(N)=O) [SEQ ID NO: 1]
time to steady-state fluorescence emission ([3]; MMP-2/9 recombinant protein 500 ng/mL): ≤ 60 min
Specificity (MMPs): MMP-1,2,3,7,9
Specificity (MMPs; listed as SEQ ID NO:1): cleaved selectively by MMPs 1, 2, 3, 7, 9
